From patent publication US10538555B2, “Macrocyclic inhibitors of the PD-1/PD-L1 and CD80(B7-1)/PD-L1 protein/protein interactions” (BRISTOL-MYERS SQUIBB COMPANY, priority 2014, dated 2020)
Where a SMILES comes first, the peptide text is derived from it. Bridges are numbered along the chain shown (N, C = ends). [ ]: non-standard residue; d: D form. Phe(3,4,5-F3) = N[C@@H](Cc1cc(F)c(F)c(F)c1)C(=O)O; NMePhe(4-F) = CN[C@@H](Cc1ccc(F)cc1)C(=O)O; NMeF = CN[C@@H](Cc1ccccc1)C(=O)O; dHyp = O=C(O)[C@H]1C[C@H](O)CN1; NMeNle = CCCC[C@H](NC)C(=O)O; dPip = O=C(O)[C@H]1CCCCN1; Dab = NCC[C@H](N)C(=O)O; Dap = NC[C@H](N)C(=O)O

biological target: T1, Human PD-L1/PD-1 (Homo sapiens, UniProt Q9NZQ7); experiment: HTRF Human PD-L1/PD-1 binding assay (PD-1-Ig/PD-L1-His); details: PD-L1-His 10 nM, PD-1-Ig 20 nM; class symbol; read-out: HTRF Human PD-L1/PD-1 Binding Assay IC50 Range
T1 construct: TVMV protease cleavage site (C); made in house; host or cells: HEK293T cells
How it was run: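 Inhibitors were preincubated 15 min with human PD-L1(18-239)-His (10 nM final), then PD-1(25-167)-Ig (20 nM final) was added for 15 min in dPBS/0.1% BSA/0.05% Tween-20. Eu-cryptate anti-Ig (1 nM) and APC anti-His (20 nM) were added; 665/620 nm ratio read after 30 min.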

T1 sequence (Q9NZQ7 with tags, fused parts or gaps): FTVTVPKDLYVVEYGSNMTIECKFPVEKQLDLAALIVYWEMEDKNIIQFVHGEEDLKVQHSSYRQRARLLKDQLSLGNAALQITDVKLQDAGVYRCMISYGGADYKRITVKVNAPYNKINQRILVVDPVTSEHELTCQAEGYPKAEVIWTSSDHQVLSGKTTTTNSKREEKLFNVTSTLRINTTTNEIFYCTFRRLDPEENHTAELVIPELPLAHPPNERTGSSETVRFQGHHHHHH

| SMILES | IC50 [nM] |
| --- | --- |
| CCCC[C@H]1C(=O)N2C[C@@H](O)C[C@@H]2C(=O)N[C@@H](CC(=O)O)C(=O)N[C@@H](C(C)C)C(=O)N(C)[C@@H](Cc2ccccc2)C(=O)N[C@@H](CCC(=O)O)C(=O)N2CCCC[C@@H]2C(=O)N[C@@H](Cc2c[nH]c3ccccc23)C(=O)N[C@@H](Cc2ccc(O)cc2)C(=O)N[C@@H](CN)C(=O)N[C@H](C(=O)NCC(N)=O)CSCC(=O)N[C@@H](Cc2cc(F)c(F)c(F)c2)C(=O)N(C)[C@@H](Cc2ccc(F)cc2)C(=O)N1C [Example 10567] ({CH2CO}-[Phe(3,4,5-F3)][NMePhe(4-F)][NMeNle][dHyp]DV[NMeF]E[dPip]WY[Dap]CG-NH2; thioether N-13) | 1 to 9.9 |
| CCCC[C@H]1C(=O)N2CCC[C@@H]2C(=O)N[C@@H](CC(=O)O)C(=O)N[C@@H](C(C)C)C(=O)N(C)[C@@H](Cc2ccccc2)C(=O)N[C@@H](CCC(=O)O)C(=O)N2CCCC[C@@H]2C(=O)N[C@@H](Cc2c[nH]c3ccccc23)C(=O)N[C@@H](Cc2ccc(O)cc2)C(=O)N[C@@H](CCN)C(=O)N[C@H](C(=O)NCC(N)=O)CSCC(=O)N[C@@H](Cc2cc(F)c(F)c(F)c2)C(=O)N(C)[C@@H](Cc2ccc(F)cc2)C(=O)N1C [Example 10568] ({CH2CO}-[Phe(3,4,5-F3)][NMePhe(4-F)][NMeNle][dP]DV[NMeF]E[dPip]WY[Dab]CG-NH2; thioether N-13) | 1 to 9.9 |
| CCCC[C@H]1C(=O)N2CCC[C@@H]2C(=O)N[C@@H](CC(=O)O)C(=O)N[C@@H](C(C)C)C(=O)N(C)[C@@H](Cc2ccccc2)C(=O)N[C@@H](CCC(=O)O)C(=O)N2CCCC[C@@H]2C(=O)N[C@@H](Cc2c[nH]c3ccccc23)C(=O)N[C@@H](Cc2ccc(O)cc2)C(=O)N[C@@H](CN)C(=O)N[C@H](C(=O)NCC(N)=O)CSCC(=O)N[C@@H](Cc2cc(F)c(F)c(F)c2)C(=O)N(C)[C@@H](Cc2ccc(F)cc2)C(=O)N1C [Example 10569] ({CH2CO}-[Phe(3,4,5-F3)][NMePhe(4-F)][NMeNle][dP]DV[NMeF]E[dPip]WY[Dap]CG-NH2; thioether N-13) | 1 to 9.9 |
| CCCC[C@H]1C(=O)N2CCC[C@@H]2C(=O)N[C@@H](CC(=O)O)C(=O)N[C@@H](C(C)C)C(=O)N(C)[C@@H](Cc2ccccc2)C(=O)N[C@@H](CC(=O)O)C(=O)N2CCCC[C@@H]2C(=O)N[C@@H](Cc2c[nH]c3ccccc23)C(=O)N[C@@H](Cc2ccc(O)cc2)C(=O)N[C@@H](CC(C)C)C(=O)N[C@H](C(=O)NCC(N)=O)CSCC(=O)N[C@@H](Cc2cc(F)c(F)c(F)c2)C(=O)N(C)[C@@H](Cc2ccc(F)cc2)C(=O)N1C [Example 10570] ({CH2CO}-[Phe(3,4,5-F3)][NMePhe(4-F)][NMeNle][dP]DV[NMeF]D[dPip]WYLCG-NH2; thioether N-13) | 1 to 9.9 |
| CCCC[C@H]1C(=O)N2CCC[C@@H]2C(=O)N[C@@H](CC(=O)O)C(=O)N[C@@H](C(C)C)C(=O)N(C)[C@@H](Cc2ccccc2)C(=O)N[C@@H](CC(=O)O)C(=O)N2CCCC[C@@H]2C(=O)N[C@@H](Cc2c[nH]c3ccccc23)C(=O)N[C@@H](Cc2ccc(O)cc2)C(=O)N[C@@H](CCN)C(=O)N[C@H](C(=O)NCC(N)=O)CSCC(=O)N[C@@H](Cc2cc(F)c(F)c(F)c2)C(=O)N(C)[C@@H](Cc2ccc(F)cc2)C(=O)N1C [Example 10571] ({CH2CO}-[Phe(3,4,5-F3)][NMePhe(4-F)][NMeNle][dP]DV[NMeF]D[dPip]WY[Dab]CG-NH2; thioether N-13) | 1 to 9.9 |
| CCCC[C@H]1C(=O)N2CCC[C@@H]2C(=O)N[C@@H](CC(=O)O)C(=O)N[C@@H](C(C)C)C(=O)N(C)[C@@H](Cc2ccccc2)C(=O)N[C@@H](CC(=O)O)C(=O)N2CCCC[C@@H]2C(=O)N[C@@H](Cc2c[nH]c3ccccc23)C(=O)N[C@@H](Cc2ccc(O)cc2)C(=O)N[C@@H](CN)C(=O)N[C@H](C(=O)NCC(N)=O)CSCC(=O)N[C@@H](Cc2cc(F)c(F)c(F)c2)C(=O)N(C)[C@@H](Cc2ccc(F)cc2)C(=O)N1C [Example 10572] ({CH2CO}-[Phe(3,4,5-F3)][NMePhe(4-F)][NMeNle][dP]DV[NMeF]D[dPip]WY[Dap]CG-NH2; thioether N-13) | 1 to 9.9 |

The remaining lines, values ahead:

| IC50 [nM] | SMILES |
| --- | --- |
| 1 to 9.9 | CCCC[C@H]1C(=O)N2C[C@@H](O)C[C@@H]2C(=O)N[C@@H](CC(=O)O)C(=O)N[C@@H](C(C)C)C(=O)N(C)[C@@H](Cc2ccccc2)C(=O)N[C@@H](CCC(=O)O)C(=O)N2CCCC[C@@H]2C(=O)N[C@@H](Cc2c[nH]c3ccccc23)C(=O)N[C@@H](Cc2ccc(O)cc2)C(=O)N[C@@H](CC(N)=O)C(=O)N[C@H](C(=O)NCC(N)=O)CSCC(=O)N[C@@H](Cc2cc(F)c(F)c(F)c2)C(=O)N(C)[C@@H](Cc2ccc(F)cc2)C(=O)N1C [Example 10558] ({CH2CO}-[Phe(3,4,5-F3)][NMePhe(4-F)][NMeNle][dHyp]DV[NMeF]E[dPip]WYNCG-NH2; thioether N-13) |
| 1 to 9.9 | CCCC[C@H]1C(=O)N2C[C@@H](O)C[C@@H]2C(=O)N[C@@H](CC(=O)O)C(=O)N[C@@H](C(C)C)C(=O)N(C)[C@@H](Cc2ccccc2)C(=O)N[C@@H](CCC(=O)O)C(=O)N2CCCC[C@@H]2C(=O)N[C@@H](Cc2c[nH]c3ccccc23)C(=O)N[C@@H](Cc2ccc(O)cc2)C(=O)N[C@@H](CCC(N)=O)C(=O)N[C@H](C(=O)NCC(N)=O)CSCC(=O)N[C@@H](Cc2cc(F)c(F)c(F)c2)C(=O)N(C)[C@@H](Cc2ccc(F)cc2)C(=O)N1C [Example 10559] ({CH2CO}-[Phe(3,4,5-F3)][NMePhe(4-F)][NMeNle][dHyp]DV[NMeF]E[dPip]WYQCG-NH2; thioether N-13) |
| 1 to 9.9 | CCCC[C@H]1C(=O)N2C[C@@H](O)C[C@@H]2C(=O)N[C@@H](CC(=O)O)C(=O)N[C@@H](C(C)C)C(=O)N(C)[C@@H](Cc2ccccc2)C(=O)N[C@@H](CCC(=O)O)C(=O)N2CCCC[C@@H]2C(=O)N[C@@H](Cc2c[nH]c3ccccc23)C(=O)N[C@@H](Cc2ccc(O)cc2)C(=O)N[C@@H](CCCCN)C(=O)N[C@H](C(=O)NCC(N)=O)CSCC(=O)N[C@@H](Cc2cc(F)c(F)c(F)c2)C(=O)N(C)[C@@H](Cc2ccc(F)cc2)C(=O)N1C [Example 10560] ({CH2CO}-[Phe(3,4,5-F3)][NMePhe(4-F)][NMeNle][dHyp]DV[NMeF]E[dPip]WYKCG-NH2; thioether N-13) |
| 1 to 9.9 | CCCC[C@H]1C(=O)N2CCC[C@@H]2C(=O)N[C@@H](CC(=O)O)C(=O)N[C@@H](C(C)C)C(=O)N(C)[C@@H](Cc2ccccc2)C(=O)N[C@@H](CCC(=O)O)C(=O)N2CCCC[C@@H]2C(=O)N[C@@H](Cc2c[nH]c3ccccc23)C(=O)N[C@@H](Cc2ccc(O)cc2)C(=O)N[C@@H](CC(C)C)C(=O)N[C@H](C(=O)NCC(N)=O)CSCC(=O)N[C@@H](Cc2cc(F)c(F)c(F)c2)C(=O)N(C)[C@@H](Cc2ccc(F)cc2)C(=O)N1C [Example 10561] ({CH2CO}-[Phe(3,4,5-F3)][NMePhe(4-F)][NMeNle][dP]DV[NMeF]E[dPip]WYLCG-NH2; thioether N-13) |
| 1 to 9.9 | CCCC[C@H]1C(=O)N2CCC[C@@H]2C(=O)N[C@@H](CC(=O)O)C(=O)N[C@@H](C(C)C)C(=O)N(C)[C@@H](Cc2ccccc2)C(=O)N[C@@H](CCC(=O)O)C(=O)N2CCCC[C@@H]2C(=O)N[C@@H](Cc2c[nH]c3ccccc23)C(=O)N[C@@H](Cc2ccc(O)cc2)C(=O)N[C@@H](CC(N)=O)C(=O)N[C@H](C(=O)NCC(N)=O)CSCC(=O)N[C@@H](Cc2cc(F)c(F)c(F)c2)C(=O)N(C)[C@@H](Cc2ccc(F)cc2)C(=O)N1C [Example 10562] ({CH2CO}-[Phe(3,4,5-F3)][NMePhe(4-F)][NMeNle][dP]DV[NMeF]E[dPip]WYNCG-NH2; thioether N-13) |
| 1 to 9.9 | CCCC[C@H]1C(=O)N2CCC[C@@H]2C(=O)N[C@@H](CC(=O)O)C(=O)N[C@@H](C(C)C)C(=O)N(C)[C@@H](Cc2ccccc2)C(=O)N[C@@H](CCC(=O)O)C(=O)N2CCCC[C@@H]2C(=O)N[C@@H](Cc2c[nH]c3ccccc23)C(=O)N[C@@H](Cc2ccc(O)cc2)C(=O)N[C@@H](CCC(N)=O)C(=O)N[C@H](C(=O)NCC(N)=O)CSCC(=O)N[C@@H](Cc2cc(F)c(F)c(F)c2)C(=O)N(C)[C@@H](Cc2ccc(F)cc2)C(=O)N1C [Example 10563] ({CH2CO}-[Phe(3,4,5-F3)][NMePhe(4-F)][NMeNle][dP]DV[NMeF]E[dPip]WYQCG-NH2; thioether N-13) |
| 1 to 9.9 | CCCC[C@H]1C(=O)N2CCC[C@@H]2C(=O)N[C@@H](CC(=O)O)C(=O)N[C@@H](C(C)C)C(=O)N(C)[C@@H](Cc2ccccc2)C(=O)N[C@@H](CCC(=O)O)C(=O)N2CCCC[C@@H]2C(=O)N[C@@H](Cc2c[nH]c3ccccc23)C(=O)N[C@@H](Cc2ccc(O)cc2)C(=O)N[C@@H](CCCCN)C(=O)N[C@H](C(=O)NCC(N)=O)CSCC(=O)N[C@@H](Cc2cc(F)c(F)c(F)c2)C(=O)N(C)[C@@H](Cc2ccc(F)cc2)C(=O)N1C [Example 10564] ({CH2CO}-[Phe(3,4,5-F3)][NMePhe(4-F)][NMeNle][dP]DV[NMeF]E[dPip]WYKCG-NH2; thioether N-13) |
| 1 to 9.9 | CCCC[C@H]1C(=O)N2CCC[C@@H]2C(=O)N[C@@H](CC(=O)O)C(=O)N[C@@H](C(C)C)C(=O)N(C)[C@@H](Cc2ccccc2)C(=O)N[C@@H](CCC(=O)O)C(=O)N2CCCC[C@@H]2C(=O)N[C@@H](Cc2c[nH]c3ccccc23)C(=O)N[C@@H](Cc2ccc(O)cc2)C(=O)N[C@@H](CO)C(=O)N[C@H](C(=O)NCC(N)=O)CSCC(=O)N[C@@H](Cc2cc(F)c(F)c(F)c2)C(=O)N(C)[C@@H](Cc2ccc(F)cc2)C(=O)N1C [Example 10565] ({CH2CO}-[Phe(3,4,5-F3)][NMePhe(4-F)][NMeNle][dP]DV[NMeF]E[dPip]WYSCG-NH2; thioether N-13) |
| 1 to 9.9 | CCCC[C@H]1C(=O)N2C[C@@H](O)C[C@@H]2C(=O)N[C@@H](CC(=O)O)C(=O)N[C@@H](C(C)C)C(=O)N(C)[C@@H](Cc2ccccc2)C(=O)N[C@@H](CCC(=O)O)C(=O)N2CCCC[C@@H]2C(=O)N[C@@H](Cc2c[nH]c3ccccc23)C(=O)N[C@@H](Cc2ccc(O)cc2)C(=O)N[C@@H](CCN)C(=O)N[C@H](C(=O)NCC(N)=O)CSCC(=O)N[C@@H](Cc2cc(F)c(F)c(F)c2)C(=O)N(C)[C@@H](Cc2ccc(F)cc2)C(=O)N1C [Example 10566] ({CH2CO}-[Phe(3,4,5-F3)][NMePhe(4-F)][NMeNle][dHyp]DV[NMeF]E[dPip]WY[Dab]CG-NH2; thioether N-13) |
